{"source": "patent US20240238319A1", "about": "“CEREAL-BASED COMPOSITIONS WITH A MIX OF GALACTO-OLIGOSACCHARIDES/FRUCTO- OLIGOSACCHARIDES AND USES THEREOF FOR IMPROVING IRON ABSORPTION” (COMPAGNIE GERVAIS DANONE, priority 2021, published 2024)", "origin": "cited, not measured here", "details": "when providing at least 80% of the WHO recommended dietary allowance"}
{"smiles": "[Fe]", "note": "[iron]", "values": [{"measurement": "increased risk of diarrhea", "result": 15, "unit": "%"}]}
